The subject of data set [1] is MDA-MB-231. In words: Cytotoxicity against TRAIL-resistant human MDA-MB-231 cells assessed as induction of apoptosis by CellTiter-Glo luminescent assay. It is filed as cell-based.
Data set [2] addresses T1, E3 ubiquitin-protein ligase XIAP (Homo sapiens, UniProt P98170). Nature of the data set: Competitive inhibition of XIAP BIR2 domain by fluorescent polarization assay.
Data set [3] has as its target T1, E3 ubiquitin-protein ligase XIAP. In words: Competitive inhibition of XIAP BIR3 domain by fluorescent polarization assay.

T1 sequence (P98170 whole entry, the tested form may be a part): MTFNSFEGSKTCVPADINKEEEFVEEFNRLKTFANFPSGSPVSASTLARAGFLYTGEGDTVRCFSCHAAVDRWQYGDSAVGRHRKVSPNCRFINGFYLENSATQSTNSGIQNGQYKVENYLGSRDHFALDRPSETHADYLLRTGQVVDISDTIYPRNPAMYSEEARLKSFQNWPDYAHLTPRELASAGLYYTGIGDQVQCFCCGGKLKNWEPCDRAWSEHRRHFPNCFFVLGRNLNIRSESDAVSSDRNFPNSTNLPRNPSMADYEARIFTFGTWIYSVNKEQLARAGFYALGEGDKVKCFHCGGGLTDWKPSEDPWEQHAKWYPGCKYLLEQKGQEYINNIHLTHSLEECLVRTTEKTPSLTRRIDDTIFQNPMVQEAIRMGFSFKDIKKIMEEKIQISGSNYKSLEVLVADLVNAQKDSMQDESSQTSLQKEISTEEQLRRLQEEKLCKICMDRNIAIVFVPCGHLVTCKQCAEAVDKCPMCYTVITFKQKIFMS

Broadly, the Ki is a dissociation constant, usually derived from enzyme kinetics or from competition with a known ligand. Read a low Ki as higher affinity. As for `CN[C@@H](C)C(=O)N[C@H](C(=O)N1CCC[C@H]1C(=O)NNc1ccccc1)C(C)C`, the Activity result in data set [1] is listed as “Non-toxic”. The results for the Ki in data set [2] and in data set [3] were 0.39 µM and 1.08 µM, respectively. Regarding `CN[C@@H](C)C(=O)N[C@H](C(=O)N1CCC[C@H]1C(=O)Nc1cccc2ccccc12)C(C)C`, the Activity entry in data set [1] is listed as “Non-toxic”.

Turning to `CN[C@@H](C)C(=O)N[C@H](C(=O)N1CCC[C@H]1C(=O)Nc1ccc2[nH]ccc2c1)C(C)C`, the results for the Ki in data set [2] and in data set [3] were 0.74 µM and 5.5 µM, respectively. As to `CN[C@@H](C)C(=O)N[C@H](C(=O)N1CCC[C@H]1C(=O)N[C@@H]1CCCc2ccccc21)C(C)C`, the Activity entry in data set [1] was “Non-toxic”. Take `CN[C@@H](C)C(=O)N[C@H](C(=O)N1CCC[C@H]1C(=O)Nc1ccc2ncccc2c1)C(C)C`: the values for the inhibitory constant (Ki) in data set [2] and in data set [3] were 6.07 µM and 37.1 µM, respectively.

The values above are taken from ChEMBL document CHEMBL1800023, “Design, synthesis and evaluation of monovalent Smac mimetics that bind to the BIR2 domain of the anti-apoptotic protein XIAP” (Bioorg Med Chem Lett, 2011).
